Test results reported in US20260200902A1, “CRYSTALLINE FORMS OF 7-CHLORO-2-(4-(3-METHOXYAZETIDIN-1-YL)CYCLOHEXYL)-2,4- DIMETHYL-N-((6-METHYL-4-(METHYLTHIO)-2-OXO-1,2-DIHYDROPYRIDIN-3-YL)METHYL)BENZO [D][1,3]DIOXOLE-5-CARBOXAMIDE” (Constellation Pharmaceuticals, Inc., priority 2019, published 2026).
“Also recorded” adds a separate entry of the source.

Key:
Type in all cases: physicochemical
[1] = Gravimetric vapour sorption (GVS) analysis; conditions: for XRPD post GVS (solid form): after GVS analysis
[2] = Static stability storage at elevated RH (5 days), XRPD and HPLC; conditions: for Solid form by XRPD after storage: stored for 5 days at elevated RH conditions
[3] = Relative stability of crystalline forms (polymorph screening and competitive slurry experiments); conditions: Form 1 versus Form 2
Protocol: The amorphous form of Compound 1 samples with different purities, one with 95.2% purity (30 mg) and another with 97.6% purity (20 mg), were each suspended or dissolved in 10-30 vol of a given solvent at RT. After 5 m n equilibration at RT, all samples (solutions and suspensions) were heated to 50° C. for 10 minutes and the resulting samples were treated as follows: Suspensions were matured between 60 and 5 FC for 72 hrs (4 hrs at each temperature). Solutions were cooled from 50 to 5° C. at 0.1° C./min and maintained at 5° C. for 72 hrs. If no solid was obtained, the solutions were allowed to evaporate at RT. All the recovered solids were analyzed by XRPD and subsequently by the appropriate techniques. See Tables 1-3 for screening procedures and analytical results.

Compound | XRPD post GVS (solid form) [1] | Solid form by XRPD after storage [2] | Relative stability of crystalline form [3] | Hygroscopicity by GVS analysis [1] | Static stability, HPLC ([2]; 25° C./97% RH (5 days)) [%] | Static stability, XRPD ([2]; 25° C./97% RH (5 days)) | Static stability, HPLC ([2]; 40° C./75% RH (5 days)) [%] | Static stability, XRPD ([2]; 40° C./75% RH (5 days))
COC1CN(C2CCC(C3(C)Oc4c(Cl)cc(C(=O)NCc5c(SC)cc(C)[nH]c5=O)c(C)c4O3)CC2)C1 (centres unmarked) [Form 2, 7-chloro-2-(4-(3-methoxyazetidin-1-yl)cyclohexyl)-2,4-dimethyl-N-((6-methyl-4-(methylthio)-2-oxo-1,2-dihydropyridin-3-yl)methyl)benzo[d][1,3]dioxole-5-carboxamide] | became amorphous | became amorphous | less stable crystalline form than Form 1 |  |  |  |  | 
COC1CN(C2CCC(C3(C)Oc4c(Cl)cc(C(=O)NCc5c(SC)cc(C)[nH]c5=O)c(C)c4O3)CC2)C1 (centres unmarked) [Form 1, 7-chloro-2-(4-(3-methoxyazetidin-1-yl)cyclohexyl)-2,4-dimethyl-N-((6-methyl-4-(methylthio)-2-oxo-1,2-dihydropyridin-3-yl)methyl)benzo[d][1,3]dioxole-5-carboxamide] | remained Form 1; also recorded: showed the material remained Pattern 1 | remained Form 1 | more stable than Form 2 | slightly hygroscopic | 96.8 | XRPD: Slight reduction in crystallinity,; also recorded: remained pattern 1 | 96.5 | XRPD: Slight reduction in crystallinity,; also recorded: remained pattern 1
